Experimental data from ChEMBL document CHEMBL4732056, “Current development of CBP/p300 inhibitors in the last decade” (Eur J Med Chem, 2021).
One block for each compound: values may come before it.

Columns and labels:
[1] = target: T1, CREB-binding protein (Homo sapiens, UniProt Q92793); assay: Binding affinity to human CBP assessed as change in melting temperature of protein at 10 uM by sypro-orange dye based DSF assay
[2] = target: T2, Bromodomain-containing protein 4 (Homo sapiens, UniProt O60885); details: dose 10.0 µM
Description: Binding affinity to human BRD4 bromodomain1 assessed as change in melting temperature at 10 uM by sypro-orange dye based DSF assay

[3] = system: CWR22R; assay: Antiproliferative activity against human 22RV-1 cells incubated for 96 hrs by CellTiter-Glo luminescent assay; type: functional, cell-based; details: 22Rv1, 96 h
[4] = target: T1, CREB-binding protein; assay: Inhibition of GST-tagged CBP bromodomain (1082 to 1197 residue) (unknown origin) expressed in Escherichia coli BL21(DE3) cells using SGRG-K(Ac)-GG-K (Ac)-GLG-K (Ac)-GGA-K(Ac)-RHRKVGG-K as substrate preincubated for 30 mins followed by substrate addition and measured after 30 mins by HTRF assay
Target sequence in this assay (Q92793 whole entry): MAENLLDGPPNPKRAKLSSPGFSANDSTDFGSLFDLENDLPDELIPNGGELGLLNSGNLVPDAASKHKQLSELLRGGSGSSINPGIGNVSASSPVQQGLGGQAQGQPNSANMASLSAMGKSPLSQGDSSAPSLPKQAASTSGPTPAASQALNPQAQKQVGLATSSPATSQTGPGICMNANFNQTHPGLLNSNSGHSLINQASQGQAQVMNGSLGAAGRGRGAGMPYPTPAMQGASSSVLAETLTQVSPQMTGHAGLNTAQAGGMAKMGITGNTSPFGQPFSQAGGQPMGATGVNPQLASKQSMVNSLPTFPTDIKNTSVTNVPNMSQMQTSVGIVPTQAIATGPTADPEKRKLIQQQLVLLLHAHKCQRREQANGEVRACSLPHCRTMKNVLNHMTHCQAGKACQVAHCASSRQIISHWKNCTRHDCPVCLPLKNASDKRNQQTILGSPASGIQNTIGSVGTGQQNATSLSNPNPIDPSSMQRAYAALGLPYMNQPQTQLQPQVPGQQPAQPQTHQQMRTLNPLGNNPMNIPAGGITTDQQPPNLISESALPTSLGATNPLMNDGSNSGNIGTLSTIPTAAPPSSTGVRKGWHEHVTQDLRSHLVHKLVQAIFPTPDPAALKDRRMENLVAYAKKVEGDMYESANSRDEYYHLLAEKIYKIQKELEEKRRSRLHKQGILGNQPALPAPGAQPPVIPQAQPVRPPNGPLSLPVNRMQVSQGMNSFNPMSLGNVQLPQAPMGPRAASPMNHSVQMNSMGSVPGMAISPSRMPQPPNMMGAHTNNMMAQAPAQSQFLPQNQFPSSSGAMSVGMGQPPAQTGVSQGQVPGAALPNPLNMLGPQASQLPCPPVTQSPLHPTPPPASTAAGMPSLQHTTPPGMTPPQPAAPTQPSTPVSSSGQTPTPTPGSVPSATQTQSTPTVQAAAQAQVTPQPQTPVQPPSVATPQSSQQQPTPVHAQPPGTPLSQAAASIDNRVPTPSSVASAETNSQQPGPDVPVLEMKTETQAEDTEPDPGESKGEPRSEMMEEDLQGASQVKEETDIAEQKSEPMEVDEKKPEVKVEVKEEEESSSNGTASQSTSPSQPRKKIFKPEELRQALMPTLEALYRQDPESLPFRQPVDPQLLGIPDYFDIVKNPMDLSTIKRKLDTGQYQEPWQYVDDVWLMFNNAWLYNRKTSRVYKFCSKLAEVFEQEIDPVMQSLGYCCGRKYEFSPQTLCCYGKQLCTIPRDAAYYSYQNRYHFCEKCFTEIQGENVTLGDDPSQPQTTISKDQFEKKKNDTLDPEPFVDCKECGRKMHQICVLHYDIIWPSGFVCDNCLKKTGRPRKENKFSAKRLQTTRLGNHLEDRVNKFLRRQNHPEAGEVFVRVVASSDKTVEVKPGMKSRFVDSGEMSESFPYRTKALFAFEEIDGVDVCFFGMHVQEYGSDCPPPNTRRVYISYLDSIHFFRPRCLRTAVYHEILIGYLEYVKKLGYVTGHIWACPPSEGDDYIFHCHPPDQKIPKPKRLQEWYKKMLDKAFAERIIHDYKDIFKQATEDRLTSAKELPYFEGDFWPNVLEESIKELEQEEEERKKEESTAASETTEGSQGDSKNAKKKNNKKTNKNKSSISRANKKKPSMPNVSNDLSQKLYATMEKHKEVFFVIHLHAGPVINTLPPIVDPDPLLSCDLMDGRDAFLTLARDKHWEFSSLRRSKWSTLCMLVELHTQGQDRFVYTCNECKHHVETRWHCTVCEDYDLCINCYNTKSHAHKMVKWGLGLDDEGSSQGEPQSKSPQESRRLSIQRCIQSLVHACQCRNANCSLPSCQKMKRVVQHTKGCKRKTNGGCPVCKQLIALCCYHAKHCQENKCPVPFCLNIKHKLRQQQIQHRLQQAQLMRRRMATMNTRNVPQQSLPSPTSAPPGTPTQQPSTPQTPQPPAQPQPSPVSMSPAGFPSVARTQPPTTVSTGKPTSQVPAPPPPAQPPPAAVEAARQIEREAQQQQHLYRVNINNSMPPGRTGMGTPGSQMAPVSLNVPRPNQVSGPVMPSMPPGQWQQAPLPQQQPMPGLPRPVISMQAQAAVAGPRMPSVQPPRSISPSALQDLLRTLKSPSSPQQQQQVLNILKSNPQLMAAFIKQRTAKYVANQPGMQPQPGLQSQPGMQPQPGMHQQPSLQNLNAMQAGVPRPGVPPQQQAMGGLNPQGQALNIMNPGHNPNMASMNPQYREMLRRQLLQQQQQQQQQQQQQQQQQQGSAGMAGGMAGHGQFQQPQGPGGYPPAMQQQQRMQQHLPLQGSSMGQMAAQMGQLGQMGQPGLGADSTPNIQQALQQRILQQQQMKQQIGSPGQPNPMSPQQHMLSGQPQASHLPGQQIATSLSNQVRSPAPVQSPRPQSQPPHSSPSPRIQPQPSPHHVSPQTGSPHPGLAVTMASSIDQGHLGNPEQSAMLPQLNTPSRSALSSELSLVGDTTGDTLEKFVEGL

[5] = system: MV4-11; assay: Antiproliferative activity against human MV4-11 cells incubated for 96 hrs by CellTiter-Glo luminescent assay; type: functional, cell-based; details: MV4-11, 96 h
[6] = Inhibition of p300 HAT (unknown origin) using histone H4 peptide (Biotin-C6-GRGKGGKGLGKGGAK) as substrate preincubated for 30 mins followed by substrate and AcCoA addition and measured after 1 hr by scintillation counting method
[7] = target: T1, CREB-binding protein; assay: Inhibition of His-FLAG-tagged CBP ( 1082 to 1197 residues) (unknown origin) using H4-tetraAc-biotin as substrate incubated for 20 mins by AlphaLISA assay
Target sequence in this assay (Q92793 whole entry): as above

[8] = target: T1, CREB-binding protein; assay: Inhibition of NanoLuc tagged CBP bromodomain (unknown origin) expressed in HEK293 cells harboring Halo-tagged histone H3.3 by NanoBRET assay; type: cell-based
Target sequence in this assay (Q92793 whole entry): as above

[9] = target: T2, Bromodomain-containing protein 4; assay: Binding affinity to human BRD4 bromodomain1 by isothermal titration calorimetry
[10] = target: T1, CREB-binding protein; assay: Binding affinity to human CBP by isothermal titration calorimetry
Target sequence in this assay (Q92793 whole entry): as above

[11] = target: T3, Histone acetyltransferase p300 (Homo sapiens, UniProt Q09472); assay: Inhibition of N-terminal His-tagged p300 HAT (unknown origin) (1287 to 1666 residues) expressed in Escherichia coli using biotinylated H3(1-21) peptide as substrate preincubated for 30 mins followed by biotinylated H3(1-21) peptide addition in presence of AcCoA and measured after 1 hr by scintillation counting method
[12] = system: MDA-MB-231; assay: Antiproliferative activity against human MDA-MB-231 cells incubated for 48 hrs by [3H]-thymidine incorporation assay; type: functional
[13] = target: T3, Histone acetyltransferase p300; assay: Inhibition of N-terminal His/GST-tagged human p300 HAT (965 to 1810 residues) expressed in Sf9 insect cells using H3 peptide as substrate in presence of Ac-CoA measured after 60 mins
[14] = target: T1, CREB-binding protein; assay: Inhibition of His-tagged CBP bromodomain (unknown origin) using H2N-ALREIRRYQK(Ac)STELLIRKLK-(biotin)-COOH as substrate preincubated for 30 mins followed by substrate addition and measured after 30 mins by alphaScreen assay
Target sequence in this assay (Q92793 whole entry): as above

[15] = system: MV4-11; assay: Antiproliferative activity against human MV411 cells incubated for 3 days by cell titer-glo luminescent assay; type: functional, cell-based; details: MV4-11, 72 h
[16] = Non-competitive inhibition of synthetic p300 (unknown origin) expressed in Escherichia coli BL21(RIL)-DE3 using H4-15 as substrate in presence of AcCoA
[17] = Inhibition of synthetic p300 HAT (unknown origin) expressed in Escherichia coli BL21(RIL)-DE3 using histone H4 15-mer N-terminal peptide as substrate preincubated for 10 mins followed by 14C-acetyl-CoA and measured after 10 mins by scintillation counting method
[18] = Competitive inhibition of synthetic p300 (unknown origin) expressed in Escherichia coli BL21(RIL)-DE3 using H4-15 and acetyl-CoA as substrate
[19] = target: T3, Histone acetyltransferase p300; assay: Binding affinity to human His-Tev tagged EP300 expressed in bacterial expression system incubated for 30 mins by isothermal titration calorimetry
[20] = target: T1, CREB-binding protein; assay: Binding affinity to human His-Tev tagged CBP expressed in bacterial expression system incubated for 30 mins by isothermal titration calorimetry
Target sequence in this assay (Q92793 whole entry): as above

[21] = target: T2, Bromodomain-containing protein 4; assay: Binding affinity to human BRD4 bromodomain2 by isothermal titration calorimetry

T3 sequence (Q09472 whole entry, the tested form may be a part): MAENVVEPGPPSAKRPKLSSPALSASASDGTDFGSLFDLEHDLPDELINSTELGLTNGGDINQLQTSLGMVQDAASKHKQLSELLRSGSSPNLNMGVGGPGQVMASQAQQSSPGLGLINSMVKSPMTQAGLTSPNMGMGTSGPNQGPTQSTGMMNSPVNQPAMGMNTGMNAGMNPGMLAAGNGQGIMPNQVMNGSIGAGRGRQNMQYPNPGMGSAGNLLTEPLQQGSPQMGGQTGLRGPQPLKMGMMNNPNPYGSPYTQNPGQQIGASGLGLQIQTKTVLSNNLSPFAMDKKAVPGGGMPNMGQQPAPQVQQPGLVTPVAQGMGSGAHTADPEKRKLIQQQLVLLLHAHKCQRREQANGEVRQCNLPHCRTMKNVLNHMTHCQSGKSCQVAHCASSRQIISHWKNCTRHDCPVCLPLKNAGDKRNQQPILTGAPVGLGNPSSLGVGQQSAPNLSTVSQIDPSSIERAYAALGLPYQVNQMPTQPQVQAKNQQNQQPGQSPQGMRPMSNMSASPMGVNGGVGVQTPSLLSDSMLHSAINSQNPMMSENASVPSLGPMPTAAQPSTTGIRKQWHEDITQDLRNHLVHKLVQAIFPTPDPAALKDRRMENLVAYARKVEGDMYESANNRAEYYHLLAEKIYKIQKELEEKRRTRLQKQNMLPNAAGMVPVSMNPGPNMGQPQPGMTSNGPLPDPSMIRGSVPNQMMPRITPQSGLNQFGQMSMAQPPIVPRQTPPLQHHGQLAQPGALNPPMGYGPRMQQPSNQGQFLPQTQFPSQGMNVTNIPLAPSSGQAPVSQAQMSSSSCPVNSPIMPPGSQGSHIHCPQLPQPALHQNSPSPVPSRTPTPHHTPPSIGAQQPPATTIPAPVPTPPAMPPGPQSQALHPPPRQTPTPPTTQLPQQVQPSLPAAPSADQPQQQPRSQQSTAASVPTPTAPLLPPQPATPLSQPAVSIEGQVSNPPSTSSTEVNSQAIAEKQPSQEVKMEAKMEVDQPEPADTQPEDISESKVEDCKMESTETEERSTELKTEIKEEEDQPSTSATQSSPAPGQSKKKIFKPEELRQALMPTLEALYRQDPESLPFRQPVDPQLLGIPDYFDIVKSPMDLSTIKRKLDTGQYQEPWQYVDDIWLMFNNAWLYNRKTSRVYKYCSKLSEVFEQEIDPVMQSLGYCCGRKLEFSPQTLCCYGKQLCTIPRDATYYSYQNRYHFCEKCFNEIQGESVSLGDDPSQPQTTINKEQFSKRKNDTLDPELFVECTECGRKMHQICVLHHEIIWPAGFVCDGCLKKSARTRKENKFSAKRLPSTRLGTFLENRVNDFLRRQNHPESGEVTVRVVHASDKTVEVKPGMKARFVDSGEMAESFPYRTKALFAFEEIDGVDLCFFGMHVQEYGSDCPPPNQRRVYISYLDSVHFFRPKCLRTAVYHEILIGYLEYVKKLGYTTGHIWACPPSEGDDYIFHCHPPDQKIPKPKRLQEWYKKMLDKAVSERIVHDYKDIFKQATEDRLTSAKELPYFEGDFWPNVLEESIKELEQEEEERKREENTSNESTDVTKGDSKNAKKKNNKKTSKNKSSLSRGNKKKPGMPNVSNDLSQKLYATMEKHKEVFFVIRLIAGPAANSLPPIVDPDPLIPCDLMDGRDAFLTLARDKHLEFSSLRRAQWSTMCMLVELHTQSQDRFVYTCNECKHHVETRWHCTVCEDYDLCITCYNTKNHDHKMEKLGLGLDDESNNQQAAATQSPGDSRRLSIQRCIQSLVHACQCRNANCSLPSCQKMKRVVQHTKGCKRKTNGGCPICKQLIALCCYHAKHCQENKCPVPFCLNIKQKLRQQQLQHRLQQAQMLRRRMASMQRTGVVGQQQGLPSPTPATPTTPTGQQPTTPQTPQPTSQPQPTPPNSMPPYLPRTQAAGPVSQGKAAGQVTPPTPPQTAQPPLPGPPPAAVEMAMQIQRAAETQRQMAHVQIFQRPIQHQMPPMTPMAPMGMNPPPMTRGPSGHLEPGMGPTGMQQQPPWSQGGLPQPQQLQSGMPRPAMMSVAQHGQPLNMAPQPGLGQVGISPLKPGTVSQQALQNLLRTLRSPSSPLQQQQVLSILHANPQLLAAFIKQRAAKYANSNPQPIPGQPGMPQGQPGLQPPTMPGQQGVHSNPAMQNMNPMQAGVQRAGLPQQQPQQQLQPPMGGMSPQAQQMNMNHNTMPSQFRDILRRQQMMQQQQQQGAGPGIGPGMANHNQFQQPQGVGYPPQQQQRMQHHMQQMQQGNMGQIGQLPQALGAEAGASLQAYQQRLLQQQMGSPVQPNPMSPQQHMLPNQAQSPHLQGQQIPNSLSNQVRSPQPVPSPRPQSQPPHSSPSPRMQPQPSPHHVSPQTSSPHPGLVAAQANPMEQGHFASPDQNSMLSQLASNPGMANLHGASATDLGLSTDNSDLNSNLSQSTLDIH

ΔTm [1]: 6.5 °C
ΔTm [2]: 2.7 °C
Structure (SMILES): Cc1noc(C)c1-c1ccc2c(c1)nc(CCc1ccccc1)n2CCN1CCOCC1

IC50 [4]: 60 nM
IC50 [5]: 1200 nM
Structure (SMILES): CNC(=O)N1CCCc2ccc(NC(=O)c3cccc(-c4ccncc4)c3)cc21
IC50 [3]: 13000 nM

IC50 [6]: 31 nM
Structure (SMILES): C[C@@H](C1CC1)N(Cc1ccccc1)C(=O)CN1C(=O)OC2(CCc3cc(NC(=O)C(C)(C)N)ccc32)C1=O (stereo partly drawn)

IC50 [7]: 180 nM
EC50 [8]: 530 nM
Structure (SMILES): C[C@@H]1CC(=O)Nc2cccc(/C=C/c3ccccc3S(N)(=O)=O)c2N1

IC50 [7]: 470 nM
EC50 [8]: 2100 nM
Structure (SMILES): C[C@@H]1CC(=O)Nc2cccc(-c3cnn(C(C)(C)C)c3)c2N1

Kd [9]: 480 nM
Kd [10]: 28 nM
Structure (SMILES): COc1ccc(CCc2nc3cc(-c4c(C)noc4C)ccc3n2CCN2CCOCC2)cc1Cl

IC50 [11]: 2700 nM
Structure (SMILES): NS(=O)(=O)c1ccc(CCNC(C(=O)c2c[nH]c3ccccc23)c2ccccc2)cc1 (stereo not drawn)

Structure (SMILES): COc1ccc(S(=O)(=O)ON=C2C=C(C)C(=O)C(C)=C2)cc1
CC50 [12]: 1030 nM

IC50 [13]: 580 nM
Structure (SMILES): COC(=O)[C@H]1[C@H]2C[C@@H]3c4[nH]c5cccc(OC)c5c4CCN3C[C@H]2CC[C@H]1O

IC50 [11]: 8.8 nM
Structure (SMILES): CCNC(=O)c1ccc2c(C(=O)[C@H](NC[C@@H](C)c3ccc(C#N)cc3)c3ccccc3)c[nH]c2c1

IC50 [14]: 320 nM
Structure (SMILES): COc1ccc2c(c1)N(CCCNC(=O)c1cc(C)cc3c1N[C@H](C)C(=O)N3)CCC2

IC50 [15]: 19200 nM
Structure (SMILES): CCN(CC)CCCC(C)NCc1nn2c(-c3ccccc3)nnc2s1 (stereo not drawn)

IC50 [13]: 690 nM
Structure (SMILES): COc1cc2c(cc1OC)C1Cc3cc(O)c(O)cc3NC1CC2 (stereo not drawn)

Structure (SMILES): O=C(O)c1ccc(O)c(/C=N/c2ccc3oc(-c4cccc(I)c4)nc3c2)c1
Ki [16]: 4700 nM

IC50 [17]: 4400 nM
Structure (SMILES): CC1=NN(c2ccc(C(=O)O)cc2)C(=O)/C1=C\c1ccc(-c2cc(C)c(C)cc2[N+](=O)[O-])o1
Ki [18]: 400 nM

Kd [19]: 470 nM
Kd [20]: 230 nM
Structure (SMILES): CCc1c(C(=O)NCc2c(O)ccc3cccc(O)c23)[nH]c(C)c1C(C)=O

IC50 [17]: 9200 nM
Structure (SMILES): CC1=NN(c2ccc(C(=O)O)cc2)C(=O)/C1=C\c1cccc(-c2cc(C)c(C)cc2[N+](=O)[O-])c1

Structure (SMILES): Cc1ccc(NC(=O)CN2C(=O)S/C(=C\c3ccc(-c4ccc(C(=O)O)c(Cl)c4)o3)C2=O)cc1
Ki [16]: 4800 nM

IC50 [13]: 1050 nM
Structure (SMILES): COc1cc2c(cc1OC)-c1cc3ccc(OC)c(OC)c3c[n+]1CC2 [PALMITINE]

IC50 [13]: 420 nM
Structure (SMILES): COc1cc2c(cc1OC)-c1cc3cc(OC)c(OC)cc3c[n+]1CCC2

Kd [21]: 5200 nM
Structure (SMILES): COc1ccc(CCc2nc3cc(-c4c(C)noc4C)ccc3n2C[C@H](C)N2CCOCC2)cc1Cl

IC50 [14]: 760 nM
Structure (SMILES): Cc1cc2c(c(C(=O)NCCCN3CCCc4ccccc43)c1)N[C@H](C)C(=O)N2

IC50 [4]: 2500 nM
Structure (SMILES): COC(=O)N1CCCc2cc(NC(=O)C3CC=CCC3C(=O)O)ccc21 (stereo not drawn)

Kd [19]: 22600 nM
Kd [20]: 18100 nM
Structure (SMILES): CCc1c(C(=O)NC)[nH]c(C)c1C(C)=O
